Results published in ChEMBL document CHEMBL3797136, “Insights into the structure-activity relationship of the anticancer compound ZJ-101: A critical role played by the cyclohexene ring” (Bioorg Med Chem Lett, 2016).

Assays:
Assay type in all cases: functional, cell-based
[1] = Antiproliferative activity against human […] assessed as cell viability by Alamar Blue assay
MDA-MB-231 = assay: Antiproliferative activity against human MDA-MB-231 cells assessed as cell viability by Alamar Blue assay
RKO = assay: Antiproliferative activity against human RKO cells assessed as cell viability by Alamar Blue assay
[2] = Antiproliferative activity against human SF295 cells assessed as cell viability by Alamar Blue assay; settings: SF-295

| SMILES | IC50 [1] | IC50 (MDA-MB-231) | IC50 (RKO) | IC50 [2] |
| --- | --- | --- | --- | --- |
| CC(=O)N[C@H](C)[C@@H](O)[C@@H](C)[C@@H]1OC(=O)/C=C/C=C(C)\C=C\[C@]2(C)CCC=C[C@@H]2/C=C(C)/C=C/[C@H]1C | 36.2 nM | 42.8 nM | 154 nM | 66.1 nM |
| CC(=O)N[C@H](C)[C@@H](O)[C@@H](C)[C@@H]1OC(=O)/C=C/C=C(C)\C=C\c2ccccc2/C=C(C)/C=C/[C@H]1C | 2200 nM | > 5000 nM | > 5000 nM | > 5000 nM |
